# According to patent publication US11377499B2, “Targeting the cofilin pathway” (priority 2017, dated 2022):
# B1: IL-7: cytokine used to culture naïve T cells for α4β7 surface receptor upregulation (protein, UniProt P13232 26-177, looked up)
# Interleukin-7: DCDIEGKDGKQYESVLMVSIDQLLDSMKEIGSNCLNNEFNFFKRHICDANKEGMFLFRAARKLRQFLKMNSTGDFDLHLLKVSEGTTILLNCTGQVKGRKPAALGEAQPTKSLEENKSLKEQKKLNDLCFLKRLLQEIKTCWNKILMGTKEH
# Columns and labels:
# [1] = system: cofilin phosphorylation in resting memory CD4 T cells; test: Intracellular p-cofilin staining and flow cytometry after HIV-1(AD8) or gp120(BAL) stimulation; assay type: cell-based, human
# Excerpt: In addition to CXCR4, CCR5 is used by R5-tropic viruses that predominate early in the infection; R5 HIV infects and depletes gut memory CD4 T cells, leading to chronic immune activation (20, 21). Whether HIV-mediated CCR5 signaling can also lead to cofilin activation in memory T cells was investigated. In contrast to X4 viruses, which infect both memory and naïve CD4 T cells, R5 viruses infect a subpopulation of memory CD4 T cells (FIG. 1A). CCR5 is present on only around 30% of resting memory CD4 T cells (FIG. 1B). Given this low percentage, a flow cytometry-based intracellular phospho-cofilin staining method was used to quantify cofilin in individual cells. […]
# A3R5.7 cell is acquired from the NIH AIDS Reagent Program. […] Viral titer (TCID50) was determined on the Rev-dependent GFP indicator cell (61), Rev-A3R5-GFP (Virongy, Manassas, Va.). […] T cells were stained with anti-CD45RO-Pacific Blue monoclonal antibody (BD Pharmingen) and analyzed by Flow Cytometry for CD45RO and GFP expression. […]
# One million cells were fixed, permeabilized with methanol, washed, and then stained with an anti-human p-cofilin antibody using a commercial intracellular staining kit (Virongy, Manassas, Va.) for 60 min at room temperature. […] Cells were washed twice, and then analyzed on a FACSCalibur (BD Biosciences, San Jose, Calif.).
# [2] = system: A3R5.7 T cells or blood resting CD4 T cells; test: Chemotaxis trans-well assay in response to SDF-1; assay type: cell-based, human
# Description: (§1) Cells were stained with PE-labeled Rat anti-human CCR5 antibody (Biolegend, San Diego, Calif.) or with a mouse anti-human α4β7 integrin antibody (Act-1) (obtained from NIH AIDS Reagent Program) followed by secondary antibody staining with Alexa Fluor 647-labelled goat anti-mouse antibodies (Invitrogen, Carlsbad, Calif.). Cells were stained on ice in PBS+0.1% BSA for 30 minutes, washed with cold PBS-0.5% BSA, and then analyzed on a FACSCalibur (BD Biosciences, San Jose, Calif.).
# A half million cells were resuspended into 100 μl RPMI-1640 medium and then added to the upper chamber of a 24-well trans-well plate (Corning, Corning, N.Y.). The lower chamber was filled with 600 μl of medium premixed with SDF-1 (40 ng/ml). The plate was incubated at 37° C. for 2 hours, and then the upper chamber was removed and cells in the lower chamber were counted. Where indicated, different concentrations of R10015 (29) or DMSO were added to cell culture, incubated for 1 hour at 37° C. before adding cells to the upper chamber. Cells were also treated with the anti-human α4β7 integrin antibody (Act-1) or the control mouse IgG1 antibody for 15 minutes before adding cells to the upper chamber. Act-1 (1 μg/ml) was also added to the lower chamber with SDF-1 (40 ng/ml).
# [3] = system: cofilin phosphorylation in A3R5.7 T cells or blood resting CD4 T cells; test: Western blot for p-cofilin and cofilin after R10015 treatment; assay type: cell-based, human
# Excerpt: Cofilin hyperactivation may be associated with a migratory impairment of CCR6+ and CXCR3+ helper T cells (Th), which are prevented from trafficking from the blood stream to peripheral organs even in aviremic HIV patients on long-term ART (5). T cell migration and homing is controlled by chemotactic signaling which activates cycles of cofilin phosphorylation and dephosphorylation to drive actin dynamics for cell motility. Phosphorylation of cofilin is regulated by LIM-domain kinase (LIMK), which inactivates cofilin through serine 3 phosphorylation (28). To quantify the effect of cofilin hyperactivation on T cell migration, a recently discovered LIMK inhibitor, R10015 (29) was used, to mimic cofilin activation in HIV infection. A human CD4 T cell line, A3R5.7, or blood resting CD4 T cells were treated with different dosages of R10015 during chemotaxis (FIG. 3). […] At around 15 to 20 μM of R10015, cofilin phosphorylation was reduced to around 50%, approximately the level seen in HIV patients (FIGS. 3A and 3B).
# One million cells were lysed in NuPAGE LDS Sample Buffer (Invitrogen, Carlsbad, Calif.) followed by sonication. Samples were heated at 70° C. for 10 minutes, separated by SDS-PAGE, and then transferred onto nitrocellulose membranes (Invitrogen, Carlsbad, Calif.). The membranes were washed in TBST for 3 minutes and then blocked for 30 minutes at room temperature with 5% milk. […]
# LIMK = settings: previously identified (30); cited from earlier work
# [4] = prevents therapeutic use; cited from earlier work
# [5] = system: cofilin phosphorylation in resting memory and IL-7-cultured naïve CD4 T cells (α4β7 integrin); test: Intracellular p-cofilin staining and flow cytometry after Act-1 stimulation; assay type: cell-based, human; settings: memory T cells treated with PTX 2 hours, then Act-1 1 μg/ml; 30 min
# Description: In the human peripheral blood, high levels of α4β7 were detected on a subpopulation of resting memory CD4 T cells (36).
# One million cells were fixed, permeabilized with methanol, washed, and then stained with an anti-human p-cofilin antibody using a commercial intracellular staining kit (Virongy, Manassas, Va.) for 60 min at room temperature. Cells were washed twice and stained with Alexa Fluor 488-labeled chicken anti-rabbit antibodies (Invitrogen, Carlsbad, Calif.). Cells were washed twice, and then analyzed on a FACSCalibur (BD Biosciences, San Jose, Calif.).
# [6] = system: α4β7 on naïve CD4 T cells; test: Surface staining of α4β7 and flow cytometry; assay type: cell-based, human; settings: naïve T cells cultured in IL-7 (5 ng/ml) for 3 days; FIG. 5
# Excerpt: All protocols involving human subjects were reviewed and approved by the George Mason University institutional review board. Peripheral blood mononuclear cells (PBMC) were purified from peripheral blood of HIV-negative donors by centrifugation in Lymphocyte Separation Medium (Corning, Corning, N.Y.), and resting CD4 T cells were further purified by two rounds of negative selection as previously described (13, 54). Briefly, for the first-round depletion, monoclonal antibodies against human CD14, CD56 and HLA-DR, DP, and DQ (BD Biosciences, San Jose, Calif.) were used. For the second-round depletion, monoclonal antibodies against human CD8, CD11b, and CD19 (BD Biosciences, San Jose, Calif.) were used. Antibody-bound cells were depleted using Dynabeads Pan Mouse IgG (Invitrogen, Carlsbad, Calif.). […]
# as §1
molecule,measurement,setting,value
Cc1nnc(C(C)C)n1C1C[C@H]2CC[C@@H](C1)N2CC[C@H](NC(=O)C1CCC(F)(F)CC1)c1ccccc1 (stereo in doubt) [maravoric],cofilin activation by gp120(BAL) after pretreatment with CCR5 blocker,"[1]; maravoric 1 μM for 1 hour, then gp120(BAL) 100 nM, FIG. 1D",largely abrogated
COC(=O)c1ccc2nc(C3CCN(c4ncnc5[nH]cc(Cl)c45)CC3)[nH]c2c1 [R10015],decrease in migrating T cells,"[2]; 15 μM or 20 μM R10015 (50% reduction in cofilin phosphorylation), A3R5.7 and blood T cells, SDF-1 40 ng/ml",20-40%
same,percentage of migrating α4β7^high T cells,"[2]; R10015 alone, control 8.90%, FIG. 4F",4.52%
same,percentage of the CCR7^+ T cell subpopulation among migrating cells,"[2]; R10015 and Act-1, FIG. 8",not altered
same,impairment of T cell chemotaxis,"[2]; different dosages of R10015, SDF-1 40 ng/ml, FIGS. 3C and 3D",dosage-dependent impairment of T cell chemotaxis
same,cofilin phosphorylation reduced to,"[3]; around 15 to 20 μM R10015, one hour, A3R5.7 or blood resting CD4 T cells",around 50%
same,dephosphorylation of cofilin,"[3]; different dosages of R10015, one hour, FIGS. 3A and 3B",dosage-dependent dephosphorylation of cofilin
C=C1[C@@H](O)[C@@H]2O[C@]3(CC[C@H](/C=C/[C@@H](C)[C@@H]4CC(C)=C[C@@]5(O[C@H](C[C@@](C)(O)C(=O)O)CC[C@H]5O)O4)O3)CC[C@H]2O[C@@H]1[C@@H](O)C[C@H](C)[C@H]1O[C@@]2(CCCCO2)CC[C@H]1C [okadaic acid],"LIMK activation, cofilin phosphorylation and actin polymerization",LIMK,activate LIMK and enhance cofilin phosphorylation and actin polymerization
same,toxicity,[4],high toxicity
pertussis toxin,Act-1-mediated cofilin activation after PTX,[5],late inhibition of cofilin activation
same,cofilin activation (dephosphorylation) following exposure to R5-HIV,"[1]; resting memory CD4 T cells, pertussis toxin 100 ng/ml for 1 hour, then HIV(AD8), FIG. 1C",largely abrogated late cofilin activation
B1,α4β7 surface expression,[6],greatly upregulate α4β7 on the cell surface
